Results taken from patent publication US5494936A, “Delivery formulation for probucol” (priority 1994, dated 1996).
Read-outs that look alike come from different tables or passages of the source.

Legend:
HIV = details: cited from earlier work
[1] = cited from earlier work
Solubility of probucol = format: physicochemical; details: formulation A; 10% probucol; ethanol not required to prevent precipitation
Method: The ethanol was added as a cosolvent to prevent precipitation of probucol from the peanut oil in formulations B & C.

Compound: Cc1cn([C@H]2C[C@H](N=[N+]=[N-])[C@@H](CO)O2)c(=O)[nH]c1=O [AZT]
- death rate (HIV; after one year, 159 patients, estimated average CD4+ count 189): 15%

Compound: CC(C)(Sc1cc(C(C)(C)C)c(O)c(C(C)(C)C)c1)Sc1cc(C(C)(C)C)c(O)c(C(C)(C)C)c1 [Probucol, bis(3,5-di-tert-butyl-4-hydroxyphenyl) acetone mercaptole]
- water solubility [1]: water-insoluble
- water solubility ([1]; listed as probucol): substantially water insoluble
- solubility in medium chain triglycerides (Solubility of probucol): sufficiently soluble in medium chain triglycerides

Compound: Nc1ccn([C@H]2CC[C@@H](CO)O2)c(=O)n1 [ddC]
- death rate (HIV; after 12 months, 20 patients, average CD4+ count on entry 154): 25%
